# Measured values published in patent US8835134B2, “Cycloastragenol monoglucoside, preparation, pharmaceutical composition and application thereof” (Tianjin Institute of Pharmaceutical Research, priority 2007, dated 2014).
# System: anesthetized open-chest dogs
# Experiment: Hemodynamics of anesthetized open-chest dogs, intravenous infusion
# Format: in vivo, mongrel dogs
# Conditions: 0.3 mg/kg iv
# Method: The animals were anesthetized by intravenous injection of 30 mg/kg sodium pentobarbital, tracheally intubated, and mechanically ventilated with positive air pressure. Left thoracotomy was performed through the fourth intercostal space and the heart was suspended in a pericardial cradle, the aortic root was isolated and a probe of blood flow meter (12 or 14 mm in diameter) was fixed to measure the aortic blood flow as a representation of cardiac output (CO), the circumflex branch of left coronary artery was isolated and a probe of blood flow meter (2 or 2.5 mm in diameter) was fixed to measure the coronary blood flow (CBF). A polyethylene catheter filled with heparin physiological saline was inserted through cardiac apex into the left ventricle to measure the left ventricular pressure (LVP) and left ventricular end-diastolic pressure (LVEDP), Peak positive and peak negative first derivatives of the LVP (+ LVdp/dt and − LVdp/dt) were calculated with the Acknowledge software. The systolic blood pressure (SBP), diastolic blood pressure (DBP) and mean arterial pressure (MAP) were measured by polyethylene catheter via the femoral artery, ECG □ was measured by a AC-601G ECG amplifier. The above-mentioned analog signal was input into a data acquisition workstation (MP100, BIOPAC Systems, USA) to a computer running Acknowledge (version 3.7.1).
# After surgery, various indexes before administration were recorded until the indexes were stable, and then intravenous infusion administration was conducted. Thirty dogs were divided into five groups (six dogs in each group), the experiment groups were given 0.15, 0.3, 0.6 mg/kg of ASP-[…] respectively, the normal control group was given 1 ml/kg of solvent, and the positive control group was given 0.3 mg/kg of astragaloside IV. The delivery volumes were 15 ml for each dog was and the delivery velocity was 1 ml/min. The indexes were recorded at 5, 10, 15, 20, 30, 45, 60, 90 and 120 mins after drug administration. At the end of experiment, the hearts were excised and weighted. The myocardial blood flow for per hectogram (CF), coronary resistance (CR), cardiac index (CI), left ventricular work (LVW) and total peripheral resistance (TPR) were calculated according to the following formulae: CF=CBF×[…]/heart weight CR=MAP/CF CI=CO/0.11×(body weight)^2/3 LVW=CO×(MAP−5)×1.052×0.0136 TPR=MAP×79.92/CO
# Data are expressed as mean±SD ( x±s), the paired t-test was used to compare the significance between before and after administration, the unpaired t-test was adopted for comparison between groups.
smiles,measurement,setting,value
"CC(C)(O)[C@@H]1CC[C@](C)([C@H]2[C@@H](O)C[C@@]3(C)[C@@H]4C[C@H](O[C@@H]5O[C@H](CO)[C@@H](O)[C@H](O)[C@H]5O)[C@H]5C(C)(C)[C@@H](O[C@@H]6OC[C@@H](O)[C@H](O)[C@H]6O)CC[C@@]56C[C@@]46CC[C@]23C)O1 [astragaloside IV, reference compound]",+LVdp/dtmax,,significantly increased
same,"CO, CI and TPR",,no significant effect
same,LVEDP,,significantly decreased
same,"LVSP, LVW and −LVdp/dtmax",,no significant change
same,CF,5 min after administration,57.2 ± 14.0 ml/min/100 g
same,CF change vs before administration,5 min after administration,(0.2 ± 3.5) ml/min/100 g
same,CI,5 min after administration,2.20 ± 0.59 L/min/m^2
same,CI change vs before administration,5 min after administration,(0.06 ± 0.10) L/min/m^2
same,CO,5 min after administration,1.23 ± 0.36 L/min
same,CO change vs before administration,5 min after administration,(0.03 ± 0.05) L/min
same,CR,5 min after administration,1.36 ± 0.47 mmHg/ml/min/100 g
same,CR change vs before administration,5 min after administration,(−0.05 ± 0.07) mmHg/ml/min/100 g
same,LVEDP,5 min after administration,1.6 ± 1.4 mmHg
same,LVEDP change vs before administration,5 min after administration,(−0.80 ± 0.81) mmHg
same,LVP,5 min after administration,104 ± 10 mmHg
same,LVP change vs before administration,5 min after administration,(1.1 ± 6.5) mmHg
same,LVW,5 min after administration,1.22 ± 0.47 kg · m
same,LVW change vs before administration,5 min after administration,(0.01 ± 0.05) kg · m
same,TPR,5 min after administration,5046 ± 1572 dyn · s/cm^5
same,TPR change vs before administration,5 min after administration,(−178 ± 384) dyn · s/cm^5
same,dp/dt,5 min after administration,1082 ± 176 mmHg/s
same,dp/dt change vs before administration,5 min after administration,(27 ± 75) mmHg/s
same,−dp/dt,5 min after administration,−878 ± 179 mmHg/s
same,−dp/dt change vs before administration,5 min after administration,(−43 ± 104) mmHg/s
same,CF,10 min after administration,59.0 ± 20.5 ml/min/100 g
same,CF change vs before administration,10 min after administration,(2.0 ± 6.5) ml/min/100 g
same,CI,10 min after administration,2.21 ± 0.52 L/min/m^2
same,CI change vs before administration,10 min after administration,(0.07 ± 0.08) L/min/m^2
same,CO,10 min after administration,1.24 ± 0.32 L/min
same,CO change vs before administration,10 min after administration,(0.04 ± 0.05) L/min
same,CR,10 min after administration,1.39 ± 0.45 mmHg/ml/min/100 g
same,CR change vs before administration,10 min after administration,(−0.01 ± 0.12) mmHg/ml/min/100 g
same,LVEDP,10 min after administration,1.7 ± 1.3 mmHg
same,LVEDP change vs before administration,10 min after administration,(−0.73 ± 0.54) mmHg
same,LVP,10 min after administration,105 ± 10 mmHg
same,LVP change vs before administration,10 min after administration,(2.5 ± 11.7) mmHg
same,LVW,10 min after administration,1.26 ± 0.39 kg · m
same,LVW change vs before administration,10 min after administration,(0.05 ± 0.13) kg · m
same,TPR,10 min after administration,5162 ± 1495 dyn · s/cm^5
same,TPR change vs before administration,10 min after administration,(−62 ± 517) dyn · s/cm^5
same,dp/dt,10 min after administration,1141 ± 136 mmHg/s
same,dp/dt change vs before administration,10 min after administration,(86 ± 61) mmHg/s
same,−dp/dt,10 min after administration,−882 ± 163 mmHg/s
same,−dp/dt change vs before administration,10 min after administration,(−46 ± 118) mmHg/s
same,CF,15 min after administration,57.0 ± 22.3 ml/min/100 g
same,CF change vs before administration,15 min after administration,(0.0 ± 7.2) ml/min/100 g
same,CI,15 min after administration,2.16 ± 0.51 L/min/m^2
same,CI change vs before administration,15 min after administration,(0.02 ± 0.07) L/min/m^2
same,CO,15 min after administration,1.21 ± 0.30 L/min
same,CO change vs before administration,15 min after administration,(0.01 ± 0.04) L/min
same,CR,15 min after administration,1.46 ± 0.50 mmHg/ml/min/100 g
same,CR change vs before administration,15 min after administration,(0.06 ± 0.15) mmHg/ml/min/100 g
same,LVEDP,15 min after administration,1.0 ± 1.2 mmHg
same,LVEDP change vs before administration,15 min after administration,(−1.40 ± 0.54) mmHg
same,LVP,15 min after administration,103 ± 12 mmHg
same,LVP change vs before administration,15 min after administration,(−0.3 ± 12.2) mmHg
same,LVW,15 min after administration,1.22 ± 0.35 kg · m
same,LVW change vs before administration,15 min after administration,(0.01 ± 0.16) kg · m
same,TPR,15 min after administration,5319 ± 1695 dyn · s/cm^5
same,TPR change vs before administration,15 min after administration,(95 ± 662) dyn · s/cm^5
same,dp/dt,15 min after administration,1167 ± 157 mmHg/s
same,dp/dt change vs before administration,15 min after administration,(112 ± 31) mmHg/s
same,−dp/dt,15 min after administration,−847 ± 141 mmHg/s
same,−dp/dt change vs before administration,15 min after administration,(−12 ± 124) mmHg/s
same,CF,20 min after administration,59.1 ± 21.2 ml/min/100 g
same,CF change vs before administration,20 min after administration,(2.1 ± 7.3) ml/min/100 g
same,CI,20 min after administration,2.15 ± 0.44 L/min/m^2
same,CI change vs before administration,20 min after administration,(0.00 ± 0.10) L/min/m^2
same,CO,20 min after administration,1.20 ± 0.27 L/min
same,CO change vs before administration,20 min after administration,(0.00 ± 0.06) L/min
same,CR,20 min after administration,1.37 ± 0.42 mmHg/ml/min/100 g
same,CR change vs before administration,20 min after administration,(−0.03 ± 0.16) mmHg/ml/min/100 g
same,LVEDP,20 min after administration,1.0 ± 1.1 mmHg
same,LVEDP change vs before administration,20 min after administration,(−1.46 ± 0.68) mmHg
same,LVP,20 min after administration,104 ± 11 mmHg
same,LVP change vs before administration,20 min after administration,(1.2 ± 16.2) mmHg
same,LVW,20 min after administration,1.2 ± 0.31 kg · m
same,LVW change vs before administration,20 min after administration,(−0.01 ± 0.22) kg · m
same,TPR,20 min after administration,5203 ± 1464 dyn · s/cm^5
same,TPR change vs before administration,20 min after administration,(−21 ± 735) dyn · s/cm^5
same,dp/dt,20 min after administration,1165 ± 112 mmHg/s
same,dp/dt change vs before administration,20 min after administration,(110 ± 67) mmHg/s
same,−dp/dt,20 min after administration,−875 ± 105 mmHg/s
same,−dp/dt change vs before administration,20 min after administration,(−39 ± 142) mmHg/s
same,CF,30 min after administration,57.8 ± 16.6 ml/min/100 g
same,CF change vs before administration,30 min after administration,(0.8 ± 3.2) ml/min/100 g
same,CI,30 min after administration,2.08 ± 0.48 L/min/m^2
same,CI change vs before administration,30 min after administration,(−0.07 ± 0.17 ^ L/min/m^2
same,CO,30 min after administration,1.16 ± 0.29 L/min
same,CO change vs before administration,30 min after administration,(−0.04 ± 0.09) L/min
same,CR,30 min after administration,1.41 ± 0.47 mmHg/ml/min/100 g
same,CR change vs before administration,30 min after administration,(0.00 ± 0.13) mmHg/ml/min/100 g
same,LVEDP,30 min after administration,1.0 ± 1.4 mmHg
same,LVEDP change vs before administration,30 min after administration,(−1.44 ± 0.90) mmHg
same,LVP,30 min after administration,102 ± 11 mmHg
same,LVP change vs before administration,30 min after administration,(−0.7 ± 13.7) mmHg
same,LVW,30 min after administration,1.19 ± 0.40 kg · m
same,LVW change vs before administration,30 min after administration,(−0.02 ± 0.15) kg · m
